Test results published in ChEMBL document CHEMBL1156829 (Proc Natl Acad Sci U S A, 2008).
Where “and” joins values, the source holds several entries; their conditions need not be identical. Equal values may be shown once.

Legend:
[1] = test system: Plasmodium falciparum; experiment: NOVARTIS: Inhibition of Plasmodium falciparum 3D7 (drug-susceptible) proliferation in erythrocyte-based infection assay; type: functional, organism-based
[2] = test system: Plasmodium falciparum; experiment: NOVARTIS: Inhibition of Plasmodium falciparum W2 (drug-resistant) proliferation in erythrocyte-based infection assay; type: functional, organism-based
[3] = NOVARTIS: Cytotoxicity against human hepatocellular carcinoma cell line (Huh7); type: toxicity, cell-based, Huh-7; conditions: Huh7 cells (hepatocellular carcinoma cell line)
[4] = Plasmodium falciparum, W2, read-out: EC50

Compound	EC50 ([1]; Plasmodium falciparum, 3D7) [nM]	EC50 [2, 4] [nM]	CC50 [3] [µM]	EC50 [2]	EC50 [1]	EC50 ([2]; read-out: EC50)
CN(CCCNc1ccnc2cc(Cl)ccc12)C(=O)c1ccc(-c2ccccc2)cc1	326	< 15.6	10.1			
CC(=O)N(C1=C(N2CCOCC2)C(=O)c2ccccc2C1=O)c1ccc(I)cc1	73.7	108	10			
COc1ccc(CCN2CCC(NCc3cccc(N(C)C)c3)CC2)cc1	806	1060	> 10			
Cc1ccc(CN2C(=O)C(O)(CC(=O)c3ccccc3)c3ccccc32)cc1 (configuration not stated)	7010	8960	> 64.5			
CCC(=O)NC(c1ccccc1Cl)c1cc(Cl)c2cccnc2c1O (configuration not stated)	232	73.6	35.4			
COc1cccc(OC)c1C(=O)Nc1cc(C(F)(F)F)ccc1Cl	> 1250	1810	> 10			
Cc1ccc(NC(=O)C2C3C=CC4(O3)C2C(=O)N(Cc2cccnc2)C4C(=O)NC2CCCCC2)cc1 (configuration not stated)	> 1640	682	> 10			
Brc1ccc(C=Nc2ccc(-c3nc4cc(-c5ccc6[nH]c(-c7ccc(N=Cc8ccc(Br)cc8)cc7)nc6c5)ccc4[nH]3)cc2)cc1	587	647	> 10			
O=C(NC1CC1)c1ccc(N2C(=O)C3C4c5ccccc5C(c5ccccc54)C3C2=O)cc1 (configuration not stated)	> 872	1900	> 10			
CCOC(=O)c1cnc2c(OC)cccc2c1Nc1cccc(C(F)(F)F)c1	926		26	No fit		
CCOC(=O)c1c(NC(=O)CSc2nc3c(c(=O)n(C)c(=O)n3C)n2C(C)C)sc2c1CCCC2	1560	> 1250	> 10			
COc1cc(N)c(Cl)cc1C(=O)NCC1CCN(c2nc(C)cc(C)n2)CC1	345	531	64.9			
CCOc1cccc(Nc2cc(C)nc3ncnn23)c1	679	729	> 100			
CCCCCN(C(=O)c1cccc(OC)c1)C(CC)c1nc2ccccc2c(=O)n1-c1ccccc1OC (configuration not stated)	614	318	> 10			
CC(=O)Nc1ccc(C(C)=NNc2nc(Nc3cc(C)ccc3C)nc(N3CCOCC3)n2)cc1	> 1250	2060	> 10			
Cc1nc(N2CCN(c3ccccn3)CC2)c2c(C)c(C(=O)Nc3c(F)cccc3F)sc2n1	3140	694	> 100			
CN(C)CCNC(=O)c1ccc(-c2cncc(NCc3ccc(Cl)c(Cl)c3)c2)cc1	640	284	10.3			
Oc1ccc(Nc2ccnc3cc(Cl)ccc23)cc1	3370	3520	39.7			
CN(C)CCN1CCN(c2cccc(-c3cccc4cccnc34)n2)CC1	18	55.2	18.8			
CCC1CN2CCC1CC2[C@@H](O)c1ccnc2ccc(OC)cc12 (some centres not stated) [DIHYDROQUINIDINE]	27.3	25.7	> 96			
COc1cccc(NC(=O)Cn2c(C)c(C#N)c3ccccc32)c1	79.6	104	> 100			
CCCn1nc(Oc2nc(NCC)cc(OC)n2)ccc1=O	384	677	> 100			
CCC(CC)CN1CCC(O)(c2ccc3oc(C(=O)Nc4ccc(OC)cc4)cc3c2)CC1	954	617	> 100			

Compound	EC50 ([1]; Plasmodium falciparum, 3D7) [nM]	EC50 [2, 4] [nM]	CC50 [3] [µM]	EC50 [2]	EC50 [1]	EC50 ([2]; read-out: EC50)
COc1cc(C(=O)NC(c2ccc3c(c2)OCO3)c2cc(Cl)c3cccnc3c2O)cc(OC)c1OC (configuration not stated)	428	698	> 10			
CN1CCN(CCCNc2ccnc3cc4ccccc4cc23)CC1	24.1	78.5	5.93			
Cc1cc(N2CCCCC2)nc2ccc(NC(=O)c3cccc([N+](=O)[O-])c3)cc12	440	793	> 100			
O=C1C(=O)N(Cc2cccc3ccccc23)c2ccc(Br)cc21	> 12500	4230	> 100			
COc1cccc(-c2ccc(O)c(CN(C)CCc3ccc(OC)c(OC)c3)c2)n1	337	52.3	57.9			
O=C(Nc1ccc(C2=NCCN2)cc1)c1cccc2c(C(=O)Nc3ccc(C4=NCCN4)cc3)cccc12	83.9	397	> 10			
COc1ccc(Br)cc1S(=O)(=O)N1CCCc2ccccc21	9950	11400	> 100			
COc1ccc(C(=O)C[n+]2cc(-c3ccc(OC)cc3)n3c2CCC3)cc1	892	822	> 100			
CC(=O)N(C)C1=C(N2CCCC2)C(=O)c2ccccc2C1=O	516	299	15.1			
COc1ccc(C(=O)Nc2ccc(-c3nc4ccc(NC(=O)c5ccc(OC)cc5)cc4[nH]3)cc2)cc1	800	810	8.78			
O=C(C(Cc1c[nH]c2ccccc12)NS(=O)(=O)c1ccc(Cl)cc1)N1CCCCC1 (configuration not stated)	719	488	> 100			
CCOC(=O)CN(C)Cc1ccc2c(NC(=O)c3ccc(C)s3)c(C(=O)OC)sc2n1	766	354	> 100			
Cc1cc(N2CCC(N(C)C3CCCC3)CC2)nc2cc(O)ccc12	312	1290	25.5			
Nc1ccc(C(=O)NN=Cc2cccc([N+](=O)[O-])c2)cc1	298	112	> 10			
Cc1cc(C)c(C(Nc2ccccn2)c2ccc3cccnc3c2O)c(C)c1 (configuration not stated)	3180	1070	> 67.9			
CC(C)CN(C(C(=O)NC(CN1CCCC1)c1ccccc1)c1ccccc1)S(=O)(=O)c1ccccn1 (configuration not stated)	1320	682	> 10			
c1cncc(-c2nc3cc(-c4ccc5[nH]c(-c6cccnc6)nc5c4)ccc3[nH]2)c1	1410	1290	> 10			
Cc1cc(I)ccc1NC(=O)CNC(=O)OCc1ccccc1	> 12500	1280	> 100			
COc1cccc(C(Nc2cc(C)ccn2)c2ccc3cccnc3c2O)c1 (configuration not stated)	1110	562	> 93.5			
CCC(c1nc2ccccc2c(=O)n1CCOC)N1CCNCC1 (configuration not stated)	369	> 469	> 10			
Cc1nc(NCCCN(C)C)c2sc3nc4c(cc3c2n1)COC(C)(C)C4	> 12500	1630	> 100			
CCCCOc1ccc(N2C(N)=NC(N)=NC2(C)C)cc1	156	> 1250	> 10			
CC(C)CNC(=O)c1ccc(OC2CCN(CC3CCCCC3)CC2)c(Cl)c1	326	130	14.8			

Compound	EC50 ([1]; Plasmodium falciparum, 3D7) [nM]	EC50 [2, 4] [nM]	CC50 [3] [µM]	EC50 [2]	EC50 [1]	EC50 ([2]; read-out: EC50)
O=C(CN1CCCC1)N1N=C(c2cccs2)CC1c1ccc(F)cc1 (configuration not stated)	> 12500	1200	> 100			
CCC(C(=O)Oc1ccccc1-c1nc2ccccn2c1NC(C)(C)CC(C)(C)C)c1ccccc1 (configuration not stated)	685	32.9	> 10			
O=C(NCc1ccc(Cl)cc1)C1CNCC1c1ccc(C(F)(F)F)cc1 (configuration not stated)	392	412	18.2			
CCOC(=O)c1c(CSc2ccccc2)oc2cc(CN(C)C)c(O)c(Cl)c12	321	210	61.6			
CCCCCc1ccc(C(=O)NCCCCNc2ccnc3cc(Cl)ccc23)cc1	386	353	> 10			
CCCc1c(C(=O)OCC)c2cc(O)ccc2n1-c1ccc(OC)cc1	133	339	> 100			
CCCN(CCC)S(=O)(=O)c1ccc(C(=O)Nc2ccccc2C(=O)Oc2ccc3c(c2)c(C(=O)OCC)c(C)n3-c2ccccc2)cc1	726	744	> 100			
CCOc1ccc(N2C(N)=NC(N)=NC2(C)C)cc1	79	> 12500	> 100			
Cc1ccn(C(=O)NCCNC(=O)Nc2ccc(Cc3ccc(NC(=O)NCCNC(=O)n4ccc(C)n4)cc3)cc2)n1	> 953	> 1250	> 10			
CC(=O)c1ccc(N2CCN(Cc3cc(-c4ccnc5cc(Cl)ccc45)ccc3O)CC2)cc1	2810	228	> 100			
O=c1c2ccccc2[nH]c2cc(Cl)ccc12	95.5	178	> 10			
CN(C)c1ccc(NC=CC(=O)C(C)(C)C)cc1	1050	282	36.9			
Cc1cc(NCCCN(C)C)c2ccccc2n1	716	1380	53.2			
CC(=O)Oc1ccccc1-c1nc2ccccn2c1NC(C)(C)CC(C)(C)C	489	36.7	> 9.44			
c1cncc(CCNc2nccn3c(-c4cccc5ccccc45)cnc23)c1	1240	> 1250	> 10			
COC(=O)COc1ccc(/C=C2\SC(=Nc3ccc(F)cc3)NC2=O)cc1	> 757	1790	> 10			
COc1cc(NC(C)CCCN(Cc2ccc(F)cc2)C(=O)Nc2ccc(Br)cc2)c2ncccc2c1 (configuration not stated)	927	691	4.24			
COc1ccc(C2=C(Nc3ccc4oc5ccccc5c4c3)c3ccccc3C2=O)cc1	142	100	> 100			
CCc1ccc2[nH]c(=O)c(CN(CCN(CC)CC)C(=S)NCCCN(CC)CC)cc2c1	2380	1390	45.6			
CCOC(=O)C1=C(C)NC2=C(C(=O)CC(C)(C)C2)C1c1cc(I)sc1SC (configuration not stated)	798	287	> 100			
CN(/C=C/C1=[N+](C)c2ccc(Cl)cc2C1(C)C)c1ccccc1			> 92.8		1360 nM and 455 nM	900 nM and 2040 nM
Cc1ccc2ncnc(Nc3cccc(C(F)(F)F)c3)c2c1	947	2170	27.9			
CCC1(C)CC(CCNCc2ccccc2O)(c2ccccc2OC)CCO1 (configuration not stated)	348	96.1	23.9			
